Patent publication US5571807A, “1,5 benzothiazepinone dervatives their preparation and pharmaceutical use” (Istituto Luso Farmaco d'Italia S.p.A., priority 1990, dated 1996)
Counter-ions that a name gives are not always drawn.

Key:
[1] = target: 3H-diltiazem binding sites in the cardiac tissue (Homo sapiens, UniProt Q13936); assay: biochemical; conditions: displacement of 3H-diltiazem, read-out: receptorial binding (pIC50) (converted)
rabbit isolated atrium = rabbit isolated atrium (Oryctolagus cuniculus, UniProt P15381); assay: cell-based; conditions: inhibition of tonic contraction; read-out: rabbit isolated atrium (pA2) (converted)
[2] = test system: vasopressine-induced angina in the rat; assay: Vasopressine-induced angina in the rat; type: in vivo; conditions: for ED50: iv, read-out: angina vasopressine test rat (iv) ED50
[3] = Pharmacokinetic studies in the conscious incannulated rat; conditions: in vivo, po, 50 mg/kg/os, read-out: pharmacokinetics in the rat t 1/2
[4] = humans; cited from earlier work

Chain of 3H-diltiazem binding sites in the cardiac tissue (Q13936 whole entry): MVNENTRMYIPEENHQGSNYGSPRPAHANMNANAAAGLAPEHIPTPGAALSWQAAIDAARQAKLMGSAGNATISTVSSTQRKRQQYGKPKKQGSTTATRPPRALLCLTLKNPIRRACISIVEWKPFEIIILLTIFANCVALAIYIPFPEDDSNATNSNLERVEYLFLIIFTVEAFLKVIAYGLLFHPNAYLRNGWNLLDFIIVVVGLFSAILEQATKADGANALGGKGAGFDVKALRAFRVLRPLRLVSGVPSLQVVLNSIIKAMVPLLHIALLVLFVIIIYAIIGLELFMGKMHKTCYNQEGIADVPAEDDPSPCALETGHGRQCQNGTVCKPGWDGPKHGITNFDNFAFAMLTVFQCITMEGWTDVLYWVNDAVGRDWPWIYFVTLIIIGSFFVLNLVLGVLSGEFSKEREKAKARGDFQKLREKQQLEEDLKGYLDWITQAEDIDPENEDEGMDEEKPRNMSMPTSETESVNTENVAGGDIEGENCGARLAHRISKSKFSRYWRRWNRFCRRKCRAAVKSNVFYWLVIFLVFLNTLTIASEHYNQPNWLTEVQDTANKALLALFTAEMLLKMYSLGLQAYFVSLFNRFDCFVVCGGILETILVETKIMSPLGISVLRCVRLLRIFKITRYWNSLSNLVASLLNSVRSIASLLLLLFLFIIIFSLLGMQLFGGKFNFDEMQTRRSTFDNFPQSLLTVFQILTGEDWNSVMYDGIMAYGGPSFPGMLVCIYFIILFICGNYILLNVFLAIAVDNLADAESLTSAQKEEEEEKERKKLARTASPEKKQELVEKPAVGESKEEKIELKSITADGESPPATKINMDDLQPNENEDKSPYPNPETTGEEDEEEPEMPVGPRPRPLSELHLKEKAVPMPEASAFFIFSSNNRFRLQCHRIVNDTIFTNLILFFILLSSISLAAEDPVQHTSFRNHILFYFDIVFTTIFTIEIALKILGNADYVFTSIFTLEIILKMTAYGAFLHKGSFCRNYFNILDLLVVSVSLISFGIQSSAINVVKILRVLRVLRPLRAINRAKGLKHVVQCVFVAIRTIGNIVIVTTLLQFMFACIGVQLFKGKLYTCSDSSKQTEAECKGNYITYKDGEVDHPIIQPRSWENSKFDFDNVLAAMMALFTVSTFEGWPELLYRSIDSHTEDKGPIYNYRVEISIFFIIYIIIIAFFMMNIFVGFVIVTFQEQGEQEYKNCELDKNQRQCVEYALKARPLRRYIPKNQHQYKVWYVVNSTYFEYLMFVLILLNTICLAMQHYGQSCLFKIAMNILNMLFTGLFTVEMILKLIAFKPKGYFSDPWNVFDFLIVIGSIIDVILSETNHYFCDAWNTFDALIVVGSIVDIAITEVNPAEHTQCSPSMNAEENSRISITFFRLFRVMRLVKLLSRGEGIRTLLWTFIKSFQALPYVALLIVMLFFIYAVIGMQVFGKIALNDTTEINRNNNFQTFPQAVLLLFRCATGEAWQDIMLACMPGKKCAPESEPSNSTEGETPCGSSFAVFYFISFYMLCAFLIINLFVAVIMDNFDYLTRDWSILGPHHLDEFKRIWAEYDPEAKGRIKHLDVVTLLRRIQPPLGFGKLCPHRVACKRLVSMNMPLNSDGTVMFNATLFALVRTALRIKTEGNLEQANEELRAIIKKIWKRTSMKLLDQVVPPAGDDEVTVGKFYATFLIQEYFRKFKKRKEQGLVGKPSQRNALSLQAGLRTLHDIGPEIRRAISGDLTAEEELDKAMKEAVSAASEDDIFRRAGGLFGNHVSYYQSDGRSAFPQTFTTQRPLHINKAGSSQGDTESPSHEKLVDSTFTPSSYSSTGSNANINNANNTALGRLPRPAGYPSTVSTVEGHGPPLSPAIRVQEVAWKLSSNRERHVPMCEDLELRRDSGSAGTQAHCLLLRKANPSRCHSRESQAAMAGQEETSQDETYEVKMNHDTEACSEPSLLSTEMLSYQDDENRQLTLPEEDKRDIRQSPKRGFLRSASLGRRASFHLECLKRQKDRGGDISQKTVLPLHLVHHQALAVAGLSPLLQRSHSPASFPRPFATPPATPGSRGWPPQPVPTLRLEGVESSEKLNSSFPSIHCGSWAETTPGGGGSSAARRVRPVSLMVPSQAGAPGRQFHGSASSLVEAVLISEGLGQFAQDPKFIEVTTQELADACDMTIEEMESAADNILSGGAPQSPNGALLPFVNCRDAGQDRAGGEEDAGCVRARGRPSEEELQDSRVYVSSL
Chain of 3H-diltiazem binding sites in the cardiac tissue (Q08289 whole entry partner): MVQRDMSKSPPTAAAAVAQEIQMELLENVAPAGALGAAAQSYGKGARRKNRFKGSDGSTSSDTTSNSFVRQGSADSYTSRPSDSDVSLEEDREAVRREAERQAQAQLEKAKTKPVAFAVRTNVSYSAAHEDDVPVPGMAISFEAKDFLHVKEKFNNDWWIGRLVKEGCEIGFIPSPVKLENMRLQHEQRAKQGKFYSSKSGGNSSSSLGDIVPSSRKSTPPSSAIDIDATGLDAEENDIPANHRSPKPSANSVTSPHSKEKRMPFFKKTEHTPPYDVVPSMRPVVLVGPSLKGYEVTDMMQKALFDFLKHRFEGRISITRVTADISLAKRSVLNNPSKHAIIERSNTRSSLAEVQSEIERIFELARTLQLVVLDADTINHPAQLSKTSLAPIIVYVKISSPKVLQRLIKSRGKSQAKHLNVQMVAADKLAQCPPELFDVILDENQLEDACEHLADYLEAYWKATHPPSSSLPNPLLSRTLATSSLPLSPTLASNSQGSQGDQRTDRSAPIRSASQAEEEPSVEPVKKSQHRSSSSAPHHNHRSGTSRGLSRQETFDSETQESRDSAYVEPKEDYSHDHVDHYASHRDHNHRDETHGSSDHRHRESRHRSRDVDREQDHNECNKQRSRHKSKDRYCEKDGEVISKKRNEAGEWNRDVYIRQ
Chain of 3H-diltiazem binding sites in the cardiac tissue (P54289 25-957 partner limits assumed): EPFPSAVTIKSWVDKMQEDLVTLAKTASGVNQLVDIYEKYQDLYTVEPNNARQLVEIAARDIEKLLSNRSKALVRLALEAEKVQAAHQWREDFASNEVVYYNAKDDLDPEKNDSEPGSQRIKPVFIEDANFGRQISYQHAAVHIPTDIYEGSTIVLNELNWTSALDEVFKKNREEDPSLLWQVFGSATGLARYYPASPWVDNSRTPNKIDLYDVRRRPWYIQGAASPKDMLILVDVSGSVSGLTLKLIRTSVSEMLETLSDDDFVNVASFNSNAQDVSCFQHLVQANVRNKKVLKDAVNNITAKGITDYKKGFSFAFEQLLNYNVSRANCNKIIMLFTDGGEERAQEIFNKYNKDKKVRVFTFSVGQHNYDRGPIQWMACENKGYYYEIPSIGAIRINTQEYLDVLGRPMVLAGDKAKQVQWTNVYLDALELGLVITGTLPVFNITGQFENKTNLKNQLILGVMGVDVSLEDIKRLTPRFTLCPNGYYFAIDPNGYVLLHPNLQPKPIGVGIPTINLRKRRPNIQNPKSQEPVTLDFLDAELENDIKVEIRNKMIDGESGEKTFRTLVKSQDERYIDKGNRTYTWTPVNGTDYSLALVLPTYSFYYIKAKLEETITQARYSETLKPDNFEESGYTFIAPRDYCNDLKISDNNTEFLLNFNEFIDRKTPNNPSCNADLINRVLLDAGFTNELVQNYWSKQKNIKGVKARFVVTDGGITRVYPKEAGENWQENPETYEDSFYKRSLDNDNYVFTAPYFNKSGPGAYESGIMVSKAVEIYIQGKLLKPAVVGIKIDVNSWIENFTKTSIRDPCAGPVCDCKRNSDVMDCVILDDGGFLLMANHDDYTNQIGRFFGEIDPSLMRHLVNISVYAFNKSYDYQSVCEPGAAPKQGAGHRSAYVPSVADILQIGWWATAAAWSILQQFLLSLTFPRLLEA
Chain of 3H-diltiazem binding sites in the cardiac tissue (P54289 958-1103 partner limits assumed): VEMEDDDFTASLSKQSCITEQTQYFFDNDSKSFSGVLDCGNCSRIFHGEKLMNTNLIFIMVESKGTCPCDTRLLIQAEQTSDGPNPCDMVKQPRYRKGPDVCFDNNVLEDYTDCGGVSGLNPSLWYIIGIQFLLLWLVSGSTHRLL

COc1ccc([C@@H]2Sc3ccccc3N(CC(C)CN(C)C)C(=O)[C@@H]2OC(C)=O)cc1.O=C(O)C(=O)O (single isomer, unassigned; diastereoisomer b) [Compound B, Cis(+)-3-acetyloxy-2,3-dihydro-5-(2-methyl-3-dimethylaminopropyl)-2-(4-methoxyphenyl)-1,5-benzothiazepin-4(5H)-one oxalate (diastereoisomer B)]
IC50 [1]: 30.2 nM | Kb (rabbit isolated atrium): 63.1 nM | angina vasopressine test rat (iv) duration [2]: 72 min | ED50 [2]: 0.54 mg/kg | half-life [3]: 1.18 h

COc1ccc([C@@H]2Sc3ccccc3N(CCN(C)C(C)C)C(=O)[C@@H]2OC(C)=O)cc1 [Compound A, Cis(+)-3-acetyloxy-2,3-dihydro-5-(2-N-isopropyl-N-methylaminoethyl)-2-(4-methoxyphenyl)-1,5-benzothiazepin-4(5H)-one hydrobromide]
IC50 [1]: 64.6 nM | Kb (rabbit isolated atrium): 50.1 nM | angina vasopressine test rat (iv) duration [2]: 78 min | ED50 [2]: 0.49 mg/kg | half-life [3]: 1.53 h

COc1ccc([C@@H]2Sc3ccccc3N(CCN(C)C)C(=O)[C@@H]2OC(C)=O)cc1 [Diltiazem, reference compound]
ED50 [2]: 0.45 mg/kg | half-life [3]: 0.95 h | elimination half-life [4]: short elimination half-life
